Measured values taken from PubChem BioAssay (NCI).
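A five-concentration, 48-hour dose response in 96-well plates underlies each endpoint, interpolated linearly between surrounding concentrations. GI50 is the concentration that inhibits growth by half. Definition used: TGI = concentration required for complete inhibition of growth.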

Experiments:
Assay in all cases: inhibition of tumour cell growth, NCI panel, 48 h
HCT-15 colon = test system: HCT-15 colon
SF-268 CNS = test system: SF-268 CNS
UACC-257 melanoma = test system: UACC-257 melanoma
COLO 205 colon = test system: COLO 205 colon
NCI-H226 lung = test system: NCI-H226 lung
A549 NSCLC = test system: A549 NSCLC
SNB-75 CNS = test system: SNB-75 CNS
SK-MEL-2 melanoma = test system: SK-MEL-2 melanoma
K-562 leukemia = test system: K-562 leukemia
OVCAR-8 ovarian = test system: OVCAR-8 ovarian
PC-3 prostate = test system: PC-3 prostate
SK-OV-3 ovarian = test system: SK-OV-3 ovarian
IGROV1 ovarian = test system: IGROV1 ovarian
U251 CNS = test system: U251 CNS
MALME-3M melanoma = test system: MALME-3M melanoma
HCT-116 colon = test system: HCT-116 colon
MDA-MB-231 breast = test system: MDA-MB-231 breast
LOX IMVI melanoma = test system: LOX IMVI melanoma
HT29 colon = test system: HT29 colon
HCC-2998 colon = test system: HCC-2998 colon
TK-10 renal = test system: TK-10 renal
RXF 393 renal = test system: RXF 393 renal
SN12C renal = test system: SN12C renal
OVCAR-5 ovarian = test system: OVCAR-5 ovarian
A498 renal = test system: A498 renal
OVCAR-3 ovarian = test system: OVCAR-3 ovarian
SNB-19 CNS = test system: SNB-19 CNS
OVCAR-4 ovarian = test system: OVCAR-4 ovarian
NCI/ADR-RES ovarian = test system: NCI/ADR-RES ovarian
SK-MEL-28 melanoma = test system: SK-MEL-28 melanoma
SK-MEL-5 melanoma = test system: SK-MEL-5 melanoma
MOLT-4 leukemia = test system: MOLT-4 leukemia
KM12 colon = test system: KM12 colon
HS 578T breast = test system: HS 578T breast
EKVX NSCLC = test system: EKVX NSCLC
MCF7 breast = test system: MCF7 breast
CAKI-1 renal = test system: CAKI-1 renal
HOP-62 NSCLC = test system: HOP-62 NSCLC
NCI-H460 lung = test system: NCI-H460 lung
UACC-62 melanoma = test system: UACC-62 melanoma
SW-620 colon = test system: SW-620 colon
NCI-H23 lung = test system: NCI-H23 lung
MDA-MB-435 = test system: MDA-MB-435
BT-549 breast = test system: BT-549 breast
M14 melanoma = test system: M14 melanoma
UO-31 renal = test system: UO-31 renal
HL-60(TB) leukemia = test system: HL-60(TB) leukemia
RPMI-8226 leukemia = test system: RPMI-8226 leukemia
T-47D breast = test system: T-47D breast
ACHN renal = test system: ACHN renal
786-0 renal = test system: 786-0 renal
SF-295 CNS = test system: SF-295 CNS
CCRF-CEM leukemia = test system: CCRF-CEM leukemia
SF-539 CNS = test system: SF-539 CNS

Q: With O=C(CSc1ccc(Cl)cc1)Nc1ccc(-c2nc3ccccc3s2)c(Cl)c1 as the molecule, how does the GI50 (HCT-15 colon) read?
A: The GI50 was 3.62 µM.

Q: And the TGI (HCT-15 colon)?
A: Its TGI is over 100 µM.

Q: And the GI50 (SF-268 CNS)?
A: Its GI50 is 3.24 µM.

Q: What about the TGI (SF-268 CNS) of the same molecule?
A: The TGI was 22.4 µM.

Q: And the GI50 (UACC-257 melanoma)?
A: Its GI50 is 15.7 µM.

Q: And the TGI (UACC-257 melanoma)?
A: Its TGI is over 100 µM.

Q: And the GI50 (COLO 205 colon)?
A: Its GI50 is 2.88 µM.

Q: And the TGI (COLO 205 colon)?
A: The TGI was 9.24 µM.

Q: And the GI50 (NCI-H226 lung)?
A: The GI50 was 4.9 µM.

Q: And the TGI (NCI-H226 lung)?
A: Its TGI is 64.1 µM.

Q: What about the GI50 (A549 NSCLC) of the same molecule?
A: The GI50 was 5.84 µM.

Q: And the TGI (A549 NSCLC)?
A: Its TGI is over 100 µM.

Q: What about the GI50 (SNB-75 CNS) of the same molecule?
A: Its GI50 is 29.1 µM.

Q: What about the TGI (SNB-75 CNS) of the same molecule?
A: Its TGI is over 100 µM.

Q: And the GI50 (SK-MEL-2 melanoma)?
A: Its GI50 is 3.82 µM.

Q: And the TGI (SK-MEL-2 melanoma)?
A: Its TGI is 15.7 µM.

Q: And the GI50 (K-562 leukemia)?
A: Its GI50 is 4.14 µM.

Q: And the TGI (K-562 leukemia)?
A: Its TGI is over 100 µM.

Q: What about the GI50 (OVCAR-8 ovarian) of the same molecule?
A: The GI50 was 5.09 µM.

Q: And the TGI (OVCAR-8 ovarian)?
A: The TGI was over 100 µM.

Q: What about the GI50 (PC-3 prostate) of the same molecule?
A: The GI50 was 2.42 µM.

Q: What about the TGI (PC-3 prostate) of the same molecule?
A: Its TGI is 8.23 µM.

Q: What about the GI50 (SK-OV-3 ovarian) of the same molecule?
A: The GI50 was 13.7 µM.

Q: What about the TGI (SK-OV-3 ovarian) of the same molecule?
A: The TGI was 44.1 µM.

Q: What about the GI50 (IGROV1 ovarian) of the same molecule?
A: Its GI50 is 0.744 µM.

Q: And the TGI (IGROV1 ovarian)?
A: Its TGI is 75.8 µM.

Q: What about the GI50 (U251 CNS) of the same molecule?
A: The GI50 was 3.71 µM.

Q: What about the TGI (U251 CNS) of the same molecule?
A: The TGI was 18.7 µM.

Q: And the GI50 (MALME-3M melanoma)?
A: The GI50 was 4.77 µM.

Q: And the TGI (MALME-3M melanoma)?
A: The TGI was 36.2 µM.

Q: And the GI50 (HCT-116 colon)?
A: The GI50 was 2.08 µM.

Q: And the TGI (HCT-116 colon)?
A: Its TGI is 5.45 µM.

Q: And the GI50 (MDA-MB-231 breast)?
A: Its GI50 is 8.34 µM.

Q: And the TGI (MDA-MB-231 breast)?
A: Its TGI is 23.6 µM.

Q: And the GI50 (LOX IMVI melanoma)?
A: The GI50 was 5.07 µM.

Q: What about the TGI (LOX IMVI melanoma) of the same molecule?
A: Its TGI is over 100 µM.

Q: What about the GI50 (HT29 colon) of the same molecule?
A: The GI50 was 6.86 µM.

Q: And the TGI (HT29 colon)?
A: The TGI was over 100 µM.

Q: And the GI50 (HCC-2998 colon)?
A: Its GI50 is 3.09 µM.

Q: And the TGI (HCC-2998 colon)?
A: The TGI was 16.3 µM.

Q: What about the GI50 (TK-10 renal) of the same molecule?
A: The GI50 was 5.3 µM.

Q: What about the TGI (TK-10 renal) of the same molecule?
A: The TGI was 40 µM.

Q: And the GI50 (RXF 393 renal)?
A: The GI50 was 14.1 µM.

Q: What about the TGI (RXF 393 renal) of the same molecule?
A: Its TGI is 55.8 µM.

Q: What about the GI50 (SN12C renal) of the same molecule?
A: Its GI50 is 3.57 µM.

Q: And the TGI (SN12C renal)?
A: The TGI was 72.8 µM.

Q: What about the GI50 (OVCAR-5 ovarian) of the same molecule?
A: Its GI50 is 11.6 µM.

Q: What about the TGI (OVCAR-5 ovarian) of the same molecule?
A: The TGI was 55.4 µM.

Q: What about the GI50 (A498 renal) of the same molecule?
A: Its GI50 is 1.98 µM.

Q: What about the TGI (A498 renal) of the same molecule?
A: Its TGI is 6.34 µM.

Q: What about the GI50 (OVCAR-3 ovarian) of the same molecule?
A: The GI50 was 2.43 µM.

Q: What about the TGI (OVCAR-3 ovarian) of the same molecule?
A: The TGI was 8.01 µM.

Q: What about the GI50 (SNB-19 CNS) of the same molecule?
A: Its GI50 is 4.31 µM.

Q: And the TGI (SNB-19 CNS)?
A: Its TGI is 74.2 µM.

Q: What about the GI50 (OVCAR-4 ovarian) of the same molecule?
A: The GI50 was 5.95 µM.

Q: What about the TGI (OVCAR-4 ovarian) of the same molecule?
A: The TGI was over 100 µM.

Q: And the GI50 (NCI/ADR-RES ovarian)?
A: The GI50 was 4.39 µM.

Q: And the TGI (NCI/ADR-RES ovarian)?
A: The TGI was 32.6 µM.

Q: And the GI50 (SK-MEL-28 melanoma)?
A: The GI50 was 6.31 µM.

Q: And the TGI (SK-MEL-28 melanoma)?
A: The TGI was 46.4 µM.

Q: And the GI50 (SK-MEL-5 melanoma)?
A: Its GI50 is 10.4 µM.

Q: And the TGI (SK-MEL-5 melanoma)?
A: Its TGI is 23 µM.

Q: What about the GI50 (MOLT-4 leukemia) of the same molecule?
A: Its GI50 is 4.37 µM.

Q: And the TGI (MOLT-4 leukemia)?
A: Its TGI is over 100 µM.

Q: And the GI50 (KM12 colon)?
A: Its GI50 is 3.66 µM.

Q: And the TGI (KM12 colon)?
A: Its TGI is over 100 µM.

Q: And the GI50 (HS 578T breast)?
A: The GI50 was 2.56 µM.

Q: And the TGI (HS 578T breast)?
A: Its TGI is 7.99 µM.

Q: And the GI50 (EKVX NSCLC)?
A: Its GI50 is 4.1 µM.

Q: What about the TGI (EKVX NSCLC) of the same molecule?
A: The TGI was 40.3 µM.

Q: What about the GI50 (MCF7 breast) of the same molecule?
A: The GI50 was 4.67 µM.

Q: And the TGI (MCF7 breast)?
A: Its TGI is 39.2 µM.

Q: And the GI50 (CAKI-1 renal)?
A: Its GI50 is 2.53 µM.

Q: What about the TGI (CAKI-1 renal) of the same molecule?
A: The TGI was 10.3 µM.

Q: And the GI50 (HOP-62 NSCLC)?
A: Its GI50 is 5.91 µM.

Q: And the TGI (HOP-62 NSCLC)?
A: The TGI was 24.8 µM.

Q: What about the GI50 (NCI-H460 lung) of the same molecule?
A: Its GI50 is 3.41 µM.

Q: And the TGI (NCI-H460 lung)?
A: The TGI was 16 µM.

Q: What about the GI50 (UACC-62 melanoma) of the same molecule?
A: The GI50 was 2.77 µM.

Q: And the TGI (UACC-62 melanoma)?
A: The TGI was 15.1 µM.

Q: And the GI50 (SW-620 colon)?
A: Its GI50 is 3.67 µM.

Q: And the TGI (SW-620 colon)?
A: The TGI was 83.4 µM.

Q: What about the GI50 (NCI-H23 lung) of the same molecule?
A: The GI50 was 2.23 µM.

Q: What about the TGI (NCI-H23 lung) of the same molecule?
A: Its TGI is 5.56 µM.

Q: What about the GI50 (MDA-MB-435) of the same molecule?
A: The GI50 was 3.72 µM.

Q: And the TGI (MDA-MB-435)?
A: Its TGI is 35.4 µM.

Q: And the GI50 (BT-549 breast)?
A: The GI50 was 2.76 µM.

Q: And the TGI (BT-549 breast)?
A: The TGI was 8.53 µM.

Q: And the GI50 (M14 melanoma)?
A: Its GI50 is 4.87 µM.

Q: What about the TGI (M14 melanoma) of the same molecule?
A: The TGI was 33.8 µM.

Q: And the GI50 (UO-31 renal)?
A: Its GI50 is 2.29 µM.

Q: What about the TGI (UO-31 renal) of the same molecule?
A: The TGI was 22.9 µM.

Q: What about the GI50 (HL-60(TB) leukemia) of the same molecule?
A: The GI50 was 13.4 µM.

Q: What about the TGI (HL-60(TB) leukemia) of the same molecule?
A: The TGI was over 100 µM.

Q: What about the GI50 (RPMI-8226 leukemia) of the same molecule?
A: Its GI50 is 2.66 µM.

Q: And the TGI (RPMI-8226 leukemia)?
A: The TGI was over 100 µM.

Q: What about the GI50 (T-47D breast) of the same molecule?
A: Its GI50 is 2.54 µM.

Q: And the TGI (T-47D breast)?
A: The TGI was 8.63 µM.

Q: What about the GI50 (ACHN renal) of the same molecule?
A: The GI50 was 4.09 µM.

Q: What about the TGI (ACHN renal) of the same molecule?
A: The TGI was 36.9 µM.

Q: And the GI50 (786-0 renal)?
A: The GI50 was 3.94 µM.

Q: And the TGI (786-0 renal)?
A: The TGI was 24.7 µM.

Q: What about the GI50 (SF-295 CNS) of the same molecule?
A: Its GI50 is 2 µM.

Q: What about the TGI (SF-295 CNS) of the same molecule?
A: The TGI was 5.42 µM.

Q: What about the GI50 (CCRF-CEM leukemia) of the same molecule?
A: The GI50 was 3.58 µM.

Q: And the TGI (CCRF-CEM leukemia)?
A: Its TGI is over 100 µM.

Q: What about the GI50 (SF-539 CNS) of the same molecule?
A: Its GI50 is 14.5 µM.

Q: And the TGI (SF-539 CNS)?
A: The TGI was 32.7 µM.
